# Results published in patent US9603896B2, “Peptide compounds and methods of production and use thereof” (priority 2012, dated 2017).
# Square brackets hold non-standard residues; d marks the D form. Ends that are not written are not given here. Peptide text beside a SMILES is read from it. AEEA = NCCOCCOCC(=O)O
# Experiments:
# [1] = system: Pseudomonas aeruginosa ATCC® 27853™; type: cell-based
# Method: The three peptide compounds BCC01-5RMP (SEQ ID NO:21), BCC02-5RMP (SEQ ID NO:22), and BCC03-5RMP (SEQ ID NO:23) were assayed for in vitro bactericidal activity against Pseudomonas aeruginosa, Escherichia coli, Salmonella typhimurium, and Acinetobacter baumannii. […] The CFU remaining at the end of 60 to 180 minute incubation was determined, and the data plotted as a log reduction in CFU/ml.
# Tables 4-6 show the results of various peptides and peptide compounds against P. aeruginosa and E. coli strains. Tables 4 and 5 show the results of an investigation of the effects of peptide or peptide compounds BCC03-5RMP (SEQ ID NO:23), BCC03-MP (SEQ ID NO:24) and BCC03-5R (SEQ ID NO:20) against P. aeruginosa ATCC® strain 27853™ and E. coli ATCC® strain 25922™ (American Type Culture Collection, Manassas, Va.). […] Table 6 compares the activity of several other compounds, including the “5R” versions of BCC01, i.e., SEQ ID NO:18 (which comprises SEQ ID NO:1 with five additional arginines), the “5R” version of BCC02 (i.e., SEQ ID NO:19, which comprises SEQ ID NO:2 with five additional arginines), and BCC03-5RMP (SEQ ID NO:23), and BCC03-MP (SEQ ID NO:24, i.e., without the five additional R residues). The data generally indicate the superiority of BCC03-5RMP (SEQ ID NO:23) against E. coli, and the superiority of the 5R or 5RMP versions of the peptide over the “AEEA only” peptide against P. aeruginosa.
# (§1) For FIGS. 10-13, in vitro bactericidal assays were performed using a starting inoculum of 1×10^6 CFU/ml of the bacterial suspension. The CFU remaining at the end of the 60-180 minute incubation was determined, and the data was plotted as log reduction in CFU/ml.
# (§2) In particular, each of the test peptides (CAP37 peptides 120-146WR, 120-146WH, and 95-122 (SEQ ID NOs: 30, 31, and 26, respectively)) was used at 25, 12.5, 6.25, and 3.12 μM. Gentamicin was used at 4 μg/ml. 1×10^6/ml Acinetobacter baumannii ATCC® BAA-747″ or Pseudomonas aeruginosa ATCC® 27853™ (American Type Culture Collection, Manassas, Va.) were incubated with the peptides, negative buffer control (tryptone saline), and positive control gentamicin at pH 5.5 or 7.2. A 60 minute incubation was used for Acinetobacter baumannii ATCC® BAA747™, while a 180 minute incubation was used for Pseudomonas aeruginosa ATCC® 27853™. 50 μl aliquots were plated out on agar plates and incubated overnight. Colony forming units were counted after overnight incubation and CFU/ml calculated.
# For FIG. 14, 1×10^6/ml Pseudomonas aeruginosa ATCC® 27853™ were incubated with each of the test peptides (CAP37 peptides 120-146WR, 120-146WH, 120-146QR, 120-146QH, 120-146QR-5RMP, and 120-146QH-5RMP (SEQ ID NOs: 30, 31, 28, 29, 32, and 33, respectively)) at 150, 75, and 37.5 μg/ml, or negative buffer control (tryptone saline), for 180 minutes at pH 5.5. 50 μl aliquots were plated out on agar plates and incubated overnight. Colony forming units were counted after overnight incubation and CFU/ml calculated.
# [2] = system: P. aeruginosa (ATCC® 27853™); assay: Pseudomonas keratitis model in the mouse eye; type: in vivo
# Method: A circular wound was created on the mouse cornea by removing the epithelium and infected with 10^5 colony forming units (CFU) of P. aeruginosa (ATCC® 27853™ (American Type Culture Collection, Manassas, Va.)). Infected wounds were treated with saline (0.9% sodium chloride, vehicle control) or saline containing indicated concentrations of peptide every 15 minutes for 2 hours, then every 30 minutes for 3 hours on the first day. Infected wounds were treated twice on the second day and once on the third day. Mice were killed at 48 hours post-infection, and CFU/eye were quantified. The means were plotted and are representative of 5 to 9 mice per group. Mann Whitney test was performed for each group as compared to the saline control group. *P=0.014.
# A circular wound (2 mm) was created on the mouse cornea by removing the epithelium and infecting the wound with 10^5 CFU of P. aeruginosa (ATCC® 27853™ (American Type Culture Collection, Manassas, Va.)). Infected wounds were treated with saline or saline containing indicated concentrations of peptide every 15 minutes for 2 hours, then every 30 minutes for 3 hours on the first day. Infected wounds were treated twice on the second day and once on the third day. Mice were killed at 48 hours post-infection, and the colony forming units per eye (CFU/eye) were quantified. The means are plotted and are representative of 5 to 9 mice per group. Mann Whitney test was performed for each group as compared to the saline control group.
# For FIGS. 15-17, in vivo bactericidal activity of the peptides was also investigated using the standard Pseudomonas keratitis model in the mouse eye (FIGS. 15-17). Peptides 120-146QR-5RMP (SEQ ID NO:32), 120-146WH (SEQ ID NO:31), and 120-146WR (SEQ ID NO: 30) were applied topically at doses of 2, 5, 10, and 20 mg/ml to the wounded cornea that had been infected with 10^5 CFU of Pseudomonas aeruginosa. The efficacies of the peptides were compared to treatment with the vehicle control. Mice were euthanized at 48 hours post infection, and the CFU/eye were quantified.
# [3] = system: human corneal epithelial cell (HCEC); assay: HCEC chemotaxis, modified Boyden chemotaxis chamber assay; type: cell-based
# Method: The effect of buffer control (0.1% BSA in Gey's buffer), heparin binding-epidermal growth factor (HB-EGF, 50 ng/ml), recombinant CAP37 (rCAP37, 250 ng/ml), 120-146QH (10^−12M, 10^−10 M, 10^−8 M, 10^−6M, and 10^−4M,) and 120-146QR (10^−10M, 10^−8M, 10^−6M, and 10^−4M) on HCEC chemotaxis was determined by the modified Boyden chemotaxis chamber method. HCEC chemotaxis was measured in response to HB-EGF, rCAP37, and peptides 120-146QH (SEQ ID NO:29) and 120-146QR (SEQ ID NO:28) after incubation for 3 hours at 37° C. Chemotaxis is expressed as a percent migration. The buffer control (no chemoattractant) is arbitrarily assigned the value of 100% migration. Data are expressed as means±SEM and are calculated from 6 observations for each test point. **P<0.01 by Wilcoxon signed-rank test as compared to controls.
# Chemotaxis assays were performed using the modified Boyden chemotaxis chamber assay. Peptide 120-146QH was used at 10^−4 M, 10^−6 M, 10^−8 M, 10^−10 M, and 10^−12 M, and peptide 120-146QR was used at 10^−4 M, 10^−6M, 10^−8M, and 10^−10 M.
# [4] = system: Acinetobacter baumannii ATCC® BAA-747™; assay: In vitro bactericidal assay (CFU remaining, log reduction); type: cell-based; conditions: for reduction of CFU/ml: 60 minutes, highest peptide concentrations (25 μM)
# Method: The three peptide compounds BCC01-5RMP (SEQ ID NO:21), BCC02-5RMP (SEQ ID NO:22), and BCC03-5RMP (SEQ ID NO:23) were assayed for in vitro bactericidal activity against Pseudomonas aeruginosa, Escherichia coli, Salmonella typhimurium, and Acinetobacter baumannii. The starting inoculum for all experiments was 1×10^6 colony forming units (CFU)/ml. The CFU remaining at the end of 60 to 180 minute incubation was determined, and the data plotted as a log reduction in CFU/ml.
# as §1, §2
molecule,measurement,setting,value
CC(C)C[C@H](NC(=O)[C@H](CCCNC(=N)N)NC(=O)CNC(=O)CNC(=O)[C@H](CO)NC(=O)[C@H](CCCNC(=N)N)NC(=O)[C@H](CCC(N)=O)NC(=O)[C@H](CO)NC(=O)CNC(=O)[C@H](Cc1c[nH]c2ccccc12)NC(=O)CNC(=O)[C@H](C)NC(=O)[C@@H](NC(=O)[C@H](CCC(N)=O)NC(=O)[C@H](CS)NC(=O)[C@H](CCCNC(=N)N)NC(=O)[C@@H](NC(=O)CNC(=O)[C@H](CCCNC(=N)N)NC(=O)[C@H](CCCNC(=N)N)NC(=O)[C@H](CCCNC(=N)N)NC(=O)[C@H](CCCNC(=N)N)NC(=O)COCCOCCNC(=O)COCCOCCN)[C@@H](C)O)C(C)C)C(=O)N[C@@H](CO)C(=O)N[C@@H](CCCNC(=N)N)C(=O)N[C@@H](Cc1ccccc1)C(=O)N1CCC[C@H]1C(=O)N[C@@H](CCCNC(=N)N)C(=O)N[C@@H](Cc1ccccc1)C(=O)N[C@H](C(=O)N[C@@H](CC(N)=O)C(=O)N[C@H](C(=O)N[C@@H](CCCNC(=N)N)C(=O)O)C(C)C)C(C)C [120-146QR-5RMP] (H-[AEEA][AEEA]RRRRGTRCQVAGWGSQRSGGRLSRFPRFVNVR-OH),reduction in CFU (FIG. 14),"[1]; pH 5.5, 180 minutes, 75 μg/ml",~6 log
same,mice with no viable bacteria in the eye after treatment,[2]; 10 and 20 mg/ml groups together,Six of the 10
same,CFU/eye at 48 hours post infection vs saline,"[2]; topical, doses of 10 and 20 mg/ml",significantly reduced the CFU/eye
GTRCQVAGWGSQHSGGRLSRFPRFVNV [Peptide 120-146QH],migration of HCECs vs buffer control,"[3]; 120-146QH at 10^−4, 10^−6, 10^−8, 10^−10 M, 120-146QR at 10^−6, 10^−8 M, HB-EGF 50 ng/ml, rCAP37 250 ng/ml, 3 hours at 37° C",significantly increase migration
same,migration compared with the whole CAP37 protein,[3]; 120-146QH at 10^−6 M and 10^−8M,comparable to the migration obtained with the whole CAP37 protein
GTRCQVAGWGSWRSGGRLSRFPRFVNV [Peptide 120-146WR],activity against P. aeruginosa,"[1]; 120-146WR at 25 μM, gentamicin 4 μg/ml",highly active
same,reduction of CFU (FIG. 14),"[1]; pH 5.5, 180 minutes, highest concentrations (150 μg/ml)",6 logs
same,reduction of CFU/ml,"[1]; pH 7.2, 180 minutes, highest concentrations of peptides (25 μM)",6 logs
same,bactericidal activity against Pseudomonas aeruginosa,"[1]; pH 7.2, 180 minutes, peptides at 25 μM",as effective as the standard antibiotic gentamicin
same,activity against A. baumannii,[4]; 12.5 μM,highly active
same,activity against A. baumannii,[4]; 25 μM,highly active
same,reduction of CFU/ml,[4]; pH 5.5,~4 logs
same,reduction of CFU/ml,[4]; pH 7.2,~5.5 logs
same,infection (CFU/eye) at 48 hours post infection vs saline,"[2]; topical, 5, 10, and 20 mg/ml",significantly reduced infection
